Assays:
Assay type in all cases: functional
SF-268 = assay: Anticancer activity against Homo sapiens (human) SF268 cells after 48 hr by SRB assay; conditions: SF-268, 48 h
SF-295 = assay: Anticancer activity against Homo sapiens (human) SF295 cells after 48 hr by SRB assay; conditions: SF-295, 48 h
ACHN = assay: Anticancer activity against Homo sapiens (human) ACHN cells after 48 hr by SRB assay
CAKI-1 = assay: Anticancer activity against Homo sapiens (human) CAKI-1 cells after 48 hr by SRB assay; conditions: CAKI-1, 48 h
OVCAR-5 = assay: Anticancer activity against Homo sapiens (human) OVCAR5 cells after 48 hr by SRB assay; conditions: OVCAR-5, 48 h
SK-MEL-2 = assay: Anticancer activity against Homo sapiens (human) SK-MEL-2 cells after 48 hr by SRB assay; conditions: SK-MEL-2, 48 h
TK-10 = assay: Anticancer activity against Homo sapiens (human) TK10 cells after 48 hr by SRB assay; conditions: TK-10, 48 h
NCI-H322M = assay: Anticancer activity against Homo sapiens (human) NCI-H322M cells after 48 hr by SRB assay
U-251 = assay: Anticancer activity against Homo sapiens (human) U251 cells after 48 hr by SRB assay; conditions: U-251, 48 h
MOLT-4 = assay: Anticancer activity against Homo sapiens (human) MOLT4 cells after 48 hr by SRB assay; conditions: MOLT-4, 48 h
KM12 = assay: Anticancer activity against Homo sapiens (human) KM12 cells after 48 hr by SRB assay; conditions: KM12, 48 h
OVCAR-3 = assay: Anticancer activity against Homo sapiens (human) OVCAR3 cells after 48 hr by SRB assay; conditions: OVCAR-3, 48 h
Hs-578T = assay: Anticancer activity against Homo sapiens (human) Hs 578T cells after 48 hr by SRB assay
T47D = assay: Anticancer activity against Homo sapiens (human) T47D cells after 48 hr by SRB assay
MDA-MB-468 = assay: Anticancer activity against Homo sapiens (human) MDA-MB-468 cells after 48 hr by SRB assay; conditions: MDA-MB-468, 48 h
HL-60(TB) = assay: Anticancer activity against Homo sapiens (human) HL-60(TB) cells after 48 hr by SRB assay; conditions: HL-60, 48 h
HT-29 = assay: Anticancer activity against Homo sapiens (human) HT-29 cells after 48 hr by SRB assay; conditions: HT-29, 48 h
NCI-H460 = assay: Anticancer activity against Homo sapiens (human) NCI-H460 cells after 48 hr by SRB assay; conditions: NCI-H460, 48 h
HOP-62 = assay: Anticancer activity against Homo sapiens (human) HOP62 cells after 48 hr by SRB assay; conditions: HOP-62, 48 h
SK-MEL-5 = assay: Anticancer activity against Homo sapiens (human) SK-MEL-5 cells after 48 hr by SRB assay; conditions: SK-MEL-5, 48 h
MDA-MB-231 = assay: Anticancer activity against Homo sapiens (human) MDA-MB-231/ATCC cells after 48 hr by SRB assay; conditions: MDA-MB-231, 48 h
MDA-MB-435 = assay: Anticancer activity against Homo sapiens (human) MDA-MB-435 cells after 48 hr by SRB assay; conditions: MDA-MB-435, 48 h
DU-145 = assay: Anticancer activity against Homo sapiens (human) DU145 cells after 48 hr by SRB assay; conditions: DU-145, 48 h
OVCAR-4 = assay: Anticancer activity against Homo sapiens (human) OVCAR4 cells after 48 hr by SRB assay; conditions: OVCAR-4, 48 h
NCI-H522 = assay: Anticancer activity against Homo sapiens (human) NCI-H522 cells after 48 hr by SRB assay; conditions: NCI-H522, 48 h
HCT-15 = assay: Anticancer activity against Homo sapiens (human) HCT15 cells after 48 hr by SRB assay; conditions: HCT-15, 48 h
COLO 205 = assay: Anticancer activity against Homo sapiens (human) COLO205 cells after 48 hr by SRB assay; conditions: COLO 205, 48 h
NCI/ADR-RES = assay: Anticancer activity against Homo sapiens (human) NCI/ADR-RES cells after 48 hr by SRB assay
CCRF-CEM = assay: Anticancer activity against Homo sapiens (human) CCRF-CEM cells assessed as cell growth promotion at 10 uM after 48 hr by SRB assay
M14 = assay: Anticancer activity against Homo sapiens (human) M14 cells after 48 hr by SRB assay; conditions: M14, 48 h
IGROV-1 = assay: Anticancer activity against Homo sapiens (human) IGROV1 cells after 48 hr by SRB assay; conditions: IGROV-1, 48 h
[1] = read-out: LC50 (the source's name)

Compound: Cc1ccc(Nn2c(SCC(=O)Nc3nc(-c4ccccc4)cs3)nc(C)c2C)cc1
- GI50 (SF-268): 9.1 µM
- LC50 (SF-268): > 100 µM
- TGI (SF-268): > 100 µM
- GI50 (SF-295): 1.06 µM
- LC50 (SF-295): > 100 µM
- TGI (SF-295): 5.89 µM
- GI50 (ACHN): 4.06 µM
- LC50 (concentration killing 50% of cells) (ACHN): > 100 µM
- TGI (ACHN): 62.9 µM
- GI50 (CAKI-1): 1.86 µM
- LC50 (concentration killing 50% of cells) (CAKI-1): 99.3 µM
- TGI (CAKI-1): 6.1 µM
- GI50 (OVCAR-5): 17.2 µM
- LC50 (OVCAR-5): > 100 µM
- TGI (OVCAR-5): > 100 µM
- GI50 (SK-MEL-2): 7.58 µM
- LC50 (concentration killing 50% of cells) (SK-MEL-2): > 100 µM
- TGI (SK-MEL-2): 35.3 µM
- GI50 (TK-10): 18.9 µM
- LC50 (50% lethal concentration) (TK-10): > 100 µM
- TGI (TK-10): > 100 µM
- GI50 (NCI-H322M): 10.2 µM
- TGI (NCI-H322M): > 100 µM
- CC50 (NCI-H322M; [1]): > 100 µM
- GI50 (U-251): 4.5 µM
- LC50 (lethal concentration, 50% net cell kill) (U-251): > 100 µM
- TGI (U-251): > 100 µM
- GI50 (MOLT-4): 3.46 µM
- LC50 (50% lethal concentration) (MOLT-4): > 100 µM
- TGI (MOLT-4): > 100 µM
- GI50 (KM12): 4.13 µM
- LC50 (concentration killing 50% of cells) (KM12): > 100 µM
- TGI (KM12): 19.1 µM
- GI50 (OVCAR-3): 8.24 µM
- LC50 (50% lethal concentration) (OVCAR-3): > 100 µM
- TGI (OVCAR-3): > 100 µM
- GI50 (Hs-578T): 3.41 µM
- TGI (Hs-578T): > 100 µM
- CC50 (Hs-578T; [1]): > 100 µM
- GI50 (T47D): 1.85 µM
- TGI (T47D): 10.4 µM
- CC50 (T47D; [1]): > 100 µM
- GI50 (MDA-MB-468): 1.7 µM
- LC50 (MDA-MB-468): > 100 µM
- TGI (MDA-MB-468): 6.67 µM
- GI50 (HL-60(TB)): 4.64 µM
- TGI (HL-60(TB)): 39.1 µM
- CC50 (HL-60(TB); [1]): > 100 µM
- GI50 (HT-29): 4.37 µM
- LC50 (HT-29): > 100 µM
- TGI (HT-29): 28.2 µM
- GI50 (NCI-H460): 3.88 µM
- LC50 (NCI-H460): 83.3 µM
- TGI (NCI-H460): 16.5 µM
- GI50 (HOP-62): 18.4 µM
- LC50 (HOP-62): > 100 µM
- GI50 (SK-MEL-5): 2 µM
- LC50 (concentration killing 50% of cells) (SK-MEL-5): 23.8 µM
- TGI (SK-MEL-5): 5.72 µM
- GI50 (MDA-MB-231): 3.34 µM
- TGI (MDA-MB-231): > 100 µM
- CC50 (MDA-MB-231; [1]): > 100 µM
- GI50 (MDA-MB-435): 2.66 µM
- LC50 (concentration killing 50% of cells) (MDA-MB-435): > 100 µM
- TGI (MDA-MB-435): 9.54 µM
- GI50 (DU-145): 9.75 µM
- LC50 (concentration killing 50% of cells) (DU-145): > 100 µM
- TGI (DU-145): 64.6 µM
- GI50 (OVCAR-4): 2.13 µM
- LC50 (concentration killing 50% of starting cells) (OVCAR-4): > 100 µM
- TGI (OVCAR-4): > 100 µM
- GI50 (NCI-H522): 2.97 µM
- LC50 (50% lethal concentration) (NCI-H522): > 100 µM
- TGI (NCI-H522): 86.8 µM
- GI50 (HCT-15): 5.17 µM
- TGI (HCT-15): > 100 µM
- CC50 (HCT-15; [1]): > 100 µM
- GI50 (COLO 205): 3.98 µM
- TGI (COLO 205): 34.4 µM
- CC50 (COLO 205; [1]): > 100 µM
- GI50 (NCI/ADR-RES): 3.04 µM
- LC50 (NCI/ADR-RES): > 100 µM
- TGI (NCI/ADR-RES): 22.2 µM
- Activity (CCRF-CEM): 57.71%
- GI50 (M14): 3.7 µM
- LC50 (M14): > 100 µM
- TGI (M14): 48.6 µM
- GI50 (IGROV-1): 4.59 µM
- LC50 (concentration killing 50% of cells) (IGROV-1): > 100 µM
- TGI (IGROV-1): > 100 µM
